Assay results reported in US8470819B2, “Benzimidazole and aza-benzimidazole carboxamides” (Merck Sharp & Dohme Corp., priority 2008, dated 2013).

Biological target: T1, full-length human PAFR (Homo sapiens, UniProt P25105)
T1 construct: PAFR was derived from membranes from CHO cells over-expressing the full-length human PAFR; expressed in transfected cells; host or cells: CHO cells (membranes)
Assay: PAF Binding Assay
Settings: 3H-PAF competition, membranes from CHO cells over-expressing human PAFR, SPA beads
Description: PAFR was derived from membranes from CHO cells over-expressing the full-length human PAFR. Supernatant from the cell homogenate pellet (3000×g) is pelleted (35000×g), and the resulting pellet is resuspended in a Tris HCl buffer (50 mM Iris HCl pH 7.4, 5 mM MgCl2, 30% glycerol) to afford a parent PAFR stock that is diluted in PAF binding buffer (50 mM HEPES pH 7.0, 10 mM MgCl2, 5 mM CaCl2, 5 mM D-(+)glucose, 0.25% fatty-acid free BSA) to afford a PAFR assay stock (120 μg/mL) prior to each use.
Binding buffer (48 μL) and competitor compound (i.e., the compound to be tested) in DMSO (2 μL) were added to a 96-well plate. Cold PAF C-18 (200 nM final concentration) was used to determine non-specific binding. 25000 cpm of ^3H-PAF (25 μL of a stock solution in PAF binding buffer) was added to all wells, and the plates sealed and shaken at rt for 5 min. PAFR assay stock (3 μg/well) was added, and the plate was sealed and shaken at rt for 2 h. SPA beads^1 (10 μL of a 25 mg/mL suspension in binding buffer) were added to all wells, and the plates were sealed and shaken for 30 min. The plates were centrifuged (1900 rpm for 5 min.), allowed to stand for 30 min. and read on a Microbeta TriLux counter.
Specific binding is defined as total binding minus non-specific binding. Total binding was the amount of ^3H-PAF bound to SPA beads in the absence of competitor; non-specific binding was ^3H-PAF bound in the presence of 30 μM Compound A.^2 The IC50 values were obtained by computer analysis of the experimental data.^3 Percent inhibition was calculated as 100−[(Sample-Non-specific bound)/(Total bound Non-specific bound)×100]

T1 sequence (P25105 whole entry): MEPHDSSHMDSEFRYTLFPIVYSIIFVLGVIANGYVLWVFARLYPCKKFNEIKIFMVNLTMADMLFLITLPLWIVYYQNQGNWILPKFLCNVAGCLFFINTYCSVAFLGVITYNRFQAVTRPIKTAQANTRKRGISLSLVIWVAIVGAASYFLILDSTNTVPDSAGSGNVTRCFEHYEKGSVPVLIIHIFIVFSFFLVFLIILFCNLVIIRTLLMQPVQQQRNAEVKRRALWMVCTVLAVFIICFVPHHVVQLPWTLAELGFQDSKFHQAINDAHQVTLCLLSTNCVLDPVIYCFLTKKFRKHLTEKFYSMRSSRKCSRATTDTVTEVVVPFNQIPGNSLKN

Structure (SMILES) | IC50 [nM]
CC(C)c1nc2cc(C(=O)N3CCC(c4cccnc4)C3)ccc2n1-c1ccc(OC(F)(F)F)cc1 (single isomer, unassigned) [Example 1c, 2-isopropyl-5-[(3-pyridin-3-ylpyrrolidin-1-yl)carbonyl]-1-[4-(trifluoromethoxy)phenyl]-1H-benzimidazole] | 11
CC(C)n1c(-c2ccc(OC(F)(F)F)cc2)nc2cc(C(=O)N3CCC(O)(c4cccnc4)C3)ccc21 (stereo not drawn) [Example 1Qa, 1-({1-isopropyl-2-[4-(trifluoromethoxy)phenyl]-1H-benzimidazol-5-yl}carbonyl)-3-pyridin-3-ylpyrrolidin-3-ol] | 9

Next, values leading:

IC50 [nM] | Structure (SMILES)
2 | CC(C)n1c(-c2ccc(OC(F)(F)F)cc2)nc2cc(C(=O)N3CCC(c4cccnc4)C3)ccc21 (single isomer, unassigned) [Example 1Ar, 1-isopropyl-5-[(3-pyridin-3-ylpyrrolidin-1-yl)carbonyl]-2-[4-(trifluoromethoxy)phenyl]-1H-benzimidazole]
9 | O=C(c1ccc2c(c1)nc(-c1ccc(OC(F)(F)F)cc1)n2C1CCC1)N1CCC(c2cccnc2)C1 (stereo not drawn) [Example 1Fr, 1-cyclobutyl-5-[(3-pyridin-3-ylpyrrolidin-1-yl)carbonyl]-2-[4-(trifluoromethoxy)phenyl]-1H-benzimidazole]
10 | CC1(n2c(-c3ccc(OC(F)(F)F)cc3)nc3cc(C(=O)N4CCC(c5cccnc5)C4)ccc32)CC1 (stereo not drawn) [Example 1Gr, 1-(1-methylcyclopropyl)-5-[(3-pyridin-3-ylpyrrolidin-1-yl)carbonyl]-2-[4-(trifluoromethoxy)phenyl]-1H-benzimidazole]

Same assay, conditions: comparison of the resolved enantiomers, in words

IC50 results in the PAF Binding Assay, slower vs faster eluting enantiomer | Structure (SMILES)
faster eluting enantiomer was preferred | CC(C)n1c(-c2ccc(OC(F)(F)F)cc2)nc2cc(C(=O)N3CCC(c4cccnc4)C3)ccc21 (single isomer, unassigned) [Example 1Ar, 1-isopropyl-5-[(3-pyridin-3-ylpyrrolidin-1-yl)carbonyl]-2-[4-(trifluoromethoxy)phenyl]-1H-benzimidazole]
